According to US20190169620A1, “Treatment of HER2-Dependent Cancers by SORL1 Inhibition” (TURUN YLIOPISTO, priority 2017, published 2019):
Entries after “also recorded” stand apart in the source; their conditions may differ.

How the values were obtained:
[1] = system: 5637 bladder cancer cells; assay: Colony formation assay of SORLA silenced 5637 treated with CADs; assay type: cell-based; details: drug for 7 days combined with SORLA silencing
Description: Transient SORLA (with two individual siRNAs) or scramble silencing was performed for 5637 bladder cancer cells. After 48 hours of silencing, 20 000 cells per well were plated on colony formation assay on 12-well plate. […] DMSO was used as control. Cells were treated for 7 days and drugs including media was replenished between 3-4 days of culture. After 7 days, cells were stained with 0.2% Crystal Violet in 10% EtOH for 10 min RT. Cells were washed extensively with PBS and dried. Wells were scanned and confluency was measured by using Image J colony area plug-in.

[2] = system: HER2-amplified breast cancer cells
Description: Transient SORLA (with two individual siRNAs) or scramble silencing was performed for 5637 bladder cancer cells. After 48 hours of silencing, 3000 cells per well were plated on 96-well plate. Cells were treated with increasing concentration of Ebastine and Loratadine for 48 hours. After 48 hours of treatment, WST-8 reagent (Sigma, 96992) was added 10 μl/well and absorbance 450 nm was measured by plate reader after 1-2 h of incubation at 37° C. with 5% CO2. Medium without cells was used as background and the A450 of background was subtracted from the samples. Relative viability was calculated by normalizing the A450 values of drug treated to DMSO treated cells. IC50 values were calculated by GraphPad using nonlinear regression to fit the data to the log(inhibitor) vs. response (variable slope) curve.

[3] = system: MDA-MB-361 cells; assay: Proliferation assay (WST-8), MDA-MB-361; assay type: cell-based; details: MDA-MB-361, lapatinib treated
Description: Cells were plated on 96-well plate (3000 cells/well, 4 replicates per sample) in volume of 100 μl.
Transfection of siRNAs to silence SORLA or HER2 protein expression: Cells were seeded on 6-well plate day before the transfection (300 000-500 000 cells/well). On next day, transfection mix containing siRNA (20-40 nM of targeting SORLA, 40 nM of HER2 targeting siRNA and 20-40 nM scramble siRNA) and RNAiMAX transfection reagent (Manufacturer) in OptiMEM medium was prepared. The mix was allowed to stand for 15 min at room temperature before adding to the cells on 6 well plate. After 48 hours of transfection cells were used for experiments.

[4] = system: BT474 cells; assay: Cell cycle analysis (propidium iodide, flow cytometry); assay type: cell-based; details: BT474, 0.5 μM lapatinib for 24 hours; stated as the effect SORLA silencing mimics
Description: BT474 transfected with control siRNA and with two individual siRNA against SORLA (#3 and #4) and BT474 treated with DMSO or with 0.5 μM Lapatinib for 24 hours were trypsinized, spun down and suspended in ice cold PBS (1 ml). Cells were fixed with 70% EtOH (ice cold) by adding 3 ml of 70% EtOH in dropwise manner while gently vortexin the cells. Cells were then stored at +4° C. until propidium iodide (PI) staining was performed. PI (Sigma) staining was performed by preparing 25 μg/ml PI solution in PBS with RNAase A (Qiagen). Cells were washed twice with PBS. After that cells were suspended in PI solution and incubated 10 minutes on ice. Samples were protected from light and kept on ice until flow cytometry analysis. Samples were run with LSR II and cell cycle analysis was performed with FlowJo.

[5] = system: LAMP1- and CD63 (LAMP3)-positive lysosomes; assay: Immunofluorescent imaging of lysosome aggregation (LAMP1, CD63); assay type: cell-based; details: Lapatinib 24 h, 0.5 mM
Description: (§1) Cells were plated on ibidi 8-well dishes or in some cases in […] ibidi dishes. Cells were fixed with 4% paraformaldehyde (PFA) in phosphate buffer saline (PBS) for 10 min at room temperature. PFA was quenched by incubating with 50 mM NH4Cl for 15 min at room temperature. Cells were blocked and permeabilized with 30% horse serum in PBS +0.3% Triton X-100 15 min at room temperature. Primary antibodies were diluted in 30% horse serum and incubated over night at +4° C. HER2 staining was performed with Herceptin (Roche) or with mouse monoclonal antibody (ThermoScientific; MA5-14057) in dilution of 1:300, LAMP1 antibody (Santa Cruz; SC-20011 (H4A3)) was diluted 1:50, rabbit monoclonal SORLA antibody (CM Petersen Lab, Arhus University) in dilution of 1:300, goat anti-EEA-1 (Santa Cruz; sc-6415) 1:50, goat anti-VPS35 (Abcam; ab10099) 1:300, mouse anti-CD63 (Hybridoma Bank; H5C6) 1:300 and rabbit anti-TGN46 (Abcam; ab50595) 1:300. After primary antibody incubation, cells were washed three times with PBS for 5 min at room temperature and then secondary antibodies were diluted 1:300 in 30% horse serum. […]

[6] = system: TFEB and LAMP1; assay: Western blot analysis of TFEB and LAMP1 protein levels; assay type: cell-based; details: SKBR3, lapatinib treatment (24 h)
Description: Protein extracts were sonicated (0.5 min ON/0.5 min OFF totally 5 min with full power) and protein levels were measured by Bio-Rad protein quantification kit. Sample buffer was added and samples were boiled for 5 min at 95° C. heat block. Proteins were separated on 4-20% gradient gel (Bio-Rad) and transferred into nitrocellulose membranes (Bio-Rad) by semi-dry turbo blot (Bio-Rad). Membranes were blocked with 5% milk powder in TBST for 1 hour at room temperature. Primary antibodies were diluted in blocking buffer (ThermoScientific) and PBS (1:1 ratio) mix and incubated over night at +4° C. Following primary antibodies were used: HER2 (Thermo Scientific, MA5-14057), SORLA (BD Transduction Lab, 612633), α-tubulin (Hybridoma Bank).

[7] = system: HER2; assay: Immunofluorescent imaging of HER2 localization; assay type: cell-based; details: BT474, primaquine 24 h, 0.3 and 0.6 mM
Description: as §1

Q: For `CC(C)(C)c1ccc(C(=O)CCCN2CCC(OC(c3ccccc3)c3ccccc3)CC2)cc1` [Ebastine], which “5637 bladder cancer colony growth” value [1] is on record?
A: The value was “significant synergistic effects”.

Q: And the cell viability ([2]; Ebastine 48 hours in combination with SORLA silencing, irrespective of anti-HER2 therapy sensitivity)?
A: The cell viability was “synergistic effect on cell viability; also recorded: significantly decreased cell viability”.

Q: What about the “cell death in vitro” value ([2]; Ebastine combined with SORLA silencing) of the same compound?
A: Its value is “significantly increased cell death”.

Q: Which results are given for `CS(=O)(=O)CCNCc1ccc(-c2ccc3ncnc(Nc4ccc(OCc5cccc(F)c5)c(Cl)c4)c3c2)o1` [lapatinib]?
A: proliferation / drug sensitivity [3]: resistant to Lapatinib; cell cycle distribution [4]: increased accumulation of cells at G1/G0 and decreased number of cells in S phase; lysosome aggregation ([5]; BT474 (sensitive)): induced lysosome aggregation; lysosome aggregation ([5]; MDA-MB-361 (resistant)): not in the resistant MDA-MB-361 cells; LAMP1 protein levels [6]: similarly increased

Q: With `CCOC(=O)N1CCC(=C2c3ccc(Cl)cc3CCc3cccnc32)CC1` [Loratadine] as the compound, how does the “5637 bladder cancer colony growth” value [1] read?
A: The value was “significant synergistic effects”.

Q: How did the HER2 localization [7] turn out when `COc1cc(NC(C)CCCN)c2ncccc2c1` (stereo not shown) [primaquine] was run?
A: The HER2 localization was “accumulation of intracellular HER2”.
